Target: Aβ42 (Homo sapiens, UniProt P05067)
Assay: Th-T (thioflavin-T) assay of Aβ42 aggregation
Format: biochemical
Settings: for Th-T assay plate reading, mean of three wells (Supplementary Fig. 47): source data, Ab alone and No Ab as controls

Sequence of Aβ42 (P05067 672-713): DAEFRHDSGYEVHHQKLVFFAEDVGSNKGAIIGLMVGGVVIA

## C=C1CC[C@H]2[C@]3(C)C[C@H](C=C(C)C)O[C@H]3CC[C@]2(C)[C@@H]1Cc1c(O)c(C)c(C)oc1=O [Compound 6, subglutinol B]
Aβ42 aggregation time course, reading M117
  Th-T fluorescence, mean of three wells: 3.0425
Aβ42 aggregation time course, reading M118
  Th-T fluorescence, mean of three wells: 3.0715
Aβ42 aggregation time course, reading M119
  Th-T fluorescence, mean of three wells: 3.036
Aβ42 aggregation time course, reading M120
  Th-T fluorescence, mean of three wells: 3.042
Aβ42 aggregation time course, reading M121
  Th-T fluorescence, mean of three wells: 3.063
Aβ42 aggregation time course, reading M122
  Th-T fluorescence, mean of three wells: 3.055
Aβ42 aggregation time course, reading M123
  Th-T fluorescence, mean of three wells: 3.062
Aβ42 aggregation time course, reading M124
  Th-T fluorescence, mean of three wells: 3.061
Aβ42 aggregation time course, reading M125
  Th-T fluorescence, mean of three wells: 3.081
Aβ42 aggregation time course, reading M126
  Th-T fluorescence, mean of three wells: 3.018
Aβ42 aggregation time course, reading M127
  Th-T fluorescence, mean of three wells: 3.038
Aβ42 aggregation time course, reading M128
  Th-T fluorescence, mean of three wells: 3.027
Aβ42 aggregation time course, reading M129
  Th-T fluorescence, mean of three wells: 3.02
Aβ42 aggregation time course, reading M130
  Th-T fluorescence, mean of three wells: 3.02
Aβ42 aggregation time course, reading M131
  Th-T fluorescence, mean of three wells: 3.032
Aβ42 aggregation time course, reading M132
  Th-T fluorescence, mean of three wells: 3.01
Aβ42 aggregation time course, reading M133
  Th-T fluorescence, mean of three wells: 3.061
Aβ42 aggregation time course, reading M134
  Th-T fluorescence, mean of three wells: 3.045
Aβ42 aggregation time course, reading M135
  Th-T fluorescence, mean of three wells: 3.053
Aβ42 aggregation time course, reading M136
  Th-T fluorescence, mean of three wells: 3.034
Supplementary Fig. 47, reading M137
  Th-T fluorescence, mean of three wells: 3.021
Supplementary Fig. 47, reading M138
  Th-T fluorescence, mean of three wells: 3.036
Supplementary Fig. 47, reading M139
  Th-T fluorescence, mean of three wells: 3.036
Supplementary Fig. 47, reading M140
  Th-T fluorescence, mean of three wells: 3.0121
Supplementary Fig. 47, reading M141
  Th-T fluorescence, mean of three wells: 3.01
Supplementary Fig. 47, reading M142
  Th-T fluorescence, mean of three wells: 2.999
Supplementary Fig. 47, reading M143
  Th-T fluorescence, mean of three wells: 3.017
Supplementary Fig. 47, reading M144
  Th-T fluorescence, mean of three wells: 3.0125
Supplementary Fig. 47, reading M145
  Th-T fluorescence, mean of three wells: 3.0288
Supplementary Fig. 47 source data, measurement M37 of time course
  Th-T fluorescence, mean of three wells: 3.017
Supplementary Fig. 47 source data, measurement M38 of time course
  Th-T fluorescence, mean of three wells: 3.04
Supplementary Fig. 47 source data, measurement M39 of time course
  Th-T fluorescence, mean of three wells: 3.05
Supplementary Fig. 47 source data, measurement M40 of time course
  Th-T fluorescence, mean of three wells: 3.045
Supplementary Fig. 47 source data, measurement M41 of time course
  Th-T fluorescence, mean of three wells: 3.085
Supplementary Fig. 47 source data, measurement M42 of time course
  Th-T fluorescence, mean of three wells: 3.072
Supplementary Fig. 47 source data, measurement M43 of time course
  Th-T fluorescence, mean of three wells: 3.079
Supplementary Fig. 47 source data, measurement M44 of time course
  Th-T fluorescence, mean of three wells: 3.068
Supplementary Fig. 47 source data, measurement M45 of time course
  Th-T fluorescence, mean of three wells: 3.111
Supplementary Fig. 47 source data, measurement M46 of time course
  Th-T fluorescence, mean of three wells: 3.079
Supplementary Fig. 47 source data, measurement M47 of time course
  Th-T fluorescence, mean of three wells: 3.097
Supplementary Fig. 47 source data, measurement M48 of time course
  Th-T fluorescence, mean of three wells: 3.117
Supplementary Fig. 47 source data, measurement M49 of time course
  Th-T fluorescence, mean of three wells: 3.11
Supplementary Fig. 47 source data, measurement M50 of time course
  Th-T fluorescence, mean of three wells: 3.114
Supplementary Fig. 47 source data, measurement M51 of time course
  Th-T fluorescence, mean of three wells: 3.119
Supplementary Fig. 47 source data, measurement M52 of time course
  Th-T fluorescence, mean of three wells: 3.113
Supplementary Fig. 47 source data, measurement M53 of time course
  Th-T fluorescence, mean of three wells: 3.12
Supplementary Fig. 47 source data, measurement M54 of time course
  Th-T fluorescence, mean of three wells: 3.1191
Supplementary Fig. 47 source data, measurement M55 of time course
  Th-T fluorescence, mean of three wells: 3.1238
Supplementary Fig. 47 source data, measurement M56 of time course
  Th-T fluorescence, mean of three wells: 3.106
Measurement M1
  Th-T assay plate reading, mean of three wells (Supplementary Fig. 47): 0.3106
Measurement M2
  Th-T assay plate reading, mean of three wells (Supplementary Fig. 47): 0.3077
Measurement M3
  Th-T assay plate reading, mean of three wells (Supplementary Fig. 47): 0.3313
Measurement M4
  Th-T assay plate reading, mean of three wells (Supplementary Fig. 47): 0.3664
Measurement M5
  Th-T assay plate reading, mean of three wells (Supplementary Fig. 47): 0.4514
Measurement M6
  Th-T assay plate reading, mean of three wells (Supplementary Fig. 47): 0.4846
Measurement M7
  Th-T assay plate reading, mean of three wells (Supplementary Fig. 47): 0.512
Measurement M8
  Th-T assay plate reading, mean of three wells (Supplementary Fig. 47): 0.5981
Measurement M9
  Th-T assay plate reading, mean of three wells (Supplementary Fig. 47): 0.6456
Measurement M10
  Th-T assay plate reading, mean of three wells (Supplementary Fig. 47): 0.6881
Measurement M11
  Th-T assay plate reading, mean of three wells (Supplementary Fig. 47): 0.7275
Measurement M12
  Th-T assay plate reading, mean of three wells (Supplementary Fig. 47): 0.7567
Measurement M13
  Th-T assay plate reading, mean of three wells (Supplementary Fig. 47): 0.7872
Measurement M14
  Th-T assay plate reading, mean of three wells (Supplementary Fig. 47): 0.8218
Measurement M15
  Th-T assay plate reading, mean of three wells (Supplementary Fig. 47): 0.8797
Measurement M16
  Th-T assay plate reading, mean of three wells (Supplementary Fig. 47): 0.9731
Reading M17, Supplementary Fig. 47 source data
  Th-T fluorescence, mean of three wells: 1.192
Reading M18, Supplementary Fig. 47 source data
  Th-T fluorescence, mean of three wells: 1.512
Reading M19, Supplementary Fig. 47 source data
  Th-T fluorescence, mean of three wells: 1.858
Reading M20, Supplementary Fig. 47 source data
  Th-T fluorescence, mean of three wells: 2.193
Reading M21, Supplementary Fig. 47 source data
  Th-T fluorescence, mean of three wells: 2.479
Reading M22, Supplementary Fig. 47 source data
  Th-T fluorescence, mean of three wells: 2.615
Reading M23, Supplementary Fig. 47 source data
  Th-T fluorescence, mean of three wells: 2.7089
Reading M24, Supplementary Fig. 47 source data
  Th-T fluorescence, mean of three wells: 2.736
Reading M25, Supplementary Fig. 47 source data
  Th-T fluorescence, mean of three wells: 2.775
Reading M26, Supplementary Fig. 47 source data
  Th-T fluorescence, mean of three wells: 2.797
Reading M27, Supplementary Fig. 47 source data
  Th-T fluorescence, mean of three wells: 2.826
Reading M28, Supplementary Fig. 47 source data
  Th-T fluorescence, mean of three wells: 2.834
Reading M29, Supplementary Fig. 47 source data
  Th-T fluorescence, mean of three wells: 2.861
Reading M30, Supplementary Fig. 47 source data
  Th-T fluorescence, mean of three wells: 2.901
Reading M31, Supplementary Fig. 47 source data
  Th-T fluorescence, mean of three wells: 2.9009
Reading M32, Supplementary Fig. 47 source data
  Th-T fluorescence, mean of three wells: 2.941
Reading M33, Supplementary Fig. 47 source data
  Th-T fluorescence, mean of three wells: 2.954
Reading M34, Supplementary Fig. 47 source data
  Th-T fluorescence, mean of three wells: 2.9825
Reading M35, Supplementary Fig. 47 source data
  Th-T fluorescence, mean of three wells: 2.976
Reading M36, Supplementary Fig. 47 source data
  Th-T fluorescence, mean of three wells: 3.001
Time course, reading M57
  Th-T fluorescence, mean of three wells: 3.126
Time course, reading M58
  Th-T fluorescence, mean of three wells: 3.154
Time course, reading M59
  Th-T fluorescence, mean of three wells: 3.098
Time course, reading M60
  Th-T fluorescence, mean of three wells: 3.135
Time course, reading M61
  Th-T fluorescence, mean of three wells: 3.131
Time course, reading M62
  Th-T fluorescence, mean of three wells: 3.132
Time course, reading M63
  Th-T fluorescence, mean of three wells: 3.122
Time course, reading M64
  Th-T fluorescence, mean of three wells: 3.115
Time course, reading M65
  Th-T fluorescence, mean of three wells: 3.114
Time course, reading M66
  Th-T fluorescence, mean of three wells: 3.129
Time course, reading M67
  Th-T fluorescence, mean of three wells: 3.159
time-course reading M97, Supplementary Fig. 47 source data
  Th-T fluorescence, mean of three wells: 3.103
time-course reading M98, Supplementary Fig. 47 source data
  Th-T fluorescence, mean of three wells: 3.123
time-course reading M99, Supplementary Fig. 47 source data
  Th-T fluorescence, mean of three wells: 3.102
time-course reading M100, Supplementary Fig. 47 source data
  Th-T fluorescence, mean of three wells: 3.074
time-course reading M101, Supplementary Fig. 47 source data
  Th-T fluorescence, mean of three wells: 3.118
time-course reading M102, Supplementary Fig. 47 source data
  Th-T fluorescence, mean of three wells: 3.1
time-course reading M103, Supplementary Fig. 47 source data
  Th-T fluorescence, mean of three wells: 3.088
time-course reading M104, Supplementary Fig. 47 source data
  Th-T fluorescence, mean of three wells: 3.101
time-course reading M105, Supplementary Fig. 47 source data
  Th-T fluorescence, mean of three wells: 3.114
time-course reading M106, Supplementary Fig. 47 source data
  Th-T fluorescence, mean of three wells: 3.076
time-course reading M107, Supplementary Fig. 47 source data
  Th-T fluorescence, mean of three wells: 3.094
time-course reading M108, Supplementary Fig. 47 source data
  Th-T fluorescence, mean of three wells: 3.063
time-course reading M109, Supplementary Fig. 47 source data
  Th-T fluorescence, mean of three wells: 3.057
time-course reading M110, Supplementary Fig. 47 source data
  Th-T fluorescence, mean of three wells: 3.049
time-course reading M111, Supplementary Fig. 47 source data
  Th-T fluorescence, mean of three wells: 3.101
time-course reading M112, Supplementary Fig. 47 source data
  Th-T fluorescence, mean of three wells: 3.097
time-course reading M113, Supplementary Fig. 47 source data
  Th-T fluorescence, mean of three wells: 3.03
time-course reading M114, Supplementary Fig. 47 source data
  Th-T fluorescence, mean of three wells: 3.07
time-course reading M115, Supplementary Fig. 47 source data
  Th-T fluorescence, mean of three wells: 3.098
time-course reading M116, Supplementary Fig. 47 source data
  Th-T fluorescence, mean of three wells: 3.06

Reference: article PMC7156458, “Synthetic biology based construction of biological activity-related library of fungal decalin-containing diterpenoid pyrones” (Nature Communications, 2020)
